Data reported in PMC10671074, “Tumor Regression upon Intratumoral and Subcutaneous Dosing of the STING Agonist ALG-031048 in Mouse Efficacy Models” (International Journal of Molecular Sciences, 2023).
Like-named read-outs stand apart in the source and are kept apart here. Marks after values point to notes of the source that are not given here.

Legend:
[1] = Plasma stability, human; assay type: in vitro ADME; settings: 37 °C, read-out: Plasma t½, Human
Method: (§1) The plasma stability assay was carried out on 96-well microtiter plates. The test compounds at 5 µM and the reference compound (propantheline) at 1 µM final concentration were incubated separately at 37 °C with mouse or human plasma for 0, 30, 60, and 240 min. At the end of each incubation time point, 300 μL of the quenching solution (50% acetonitrile, 50% methanol, and 0.05% formic acid) containing the internal standard was added to each well. The incubation plates were sealed, vortexed, and centrifuged at 4 °C for 15 min at 4000 rpm. The supernatant was transferred to fresh plates for LC/MS/MS analysis of the test compounds. The peak area ratios of each test compound over the internal standard were plotted against incubation time, and the t½ was calculated from the curve assuming first-order kinetics.

[2] = Plasma stability, mouse; assay type: in vitro ADME; settings: 37 °C, read-out: Plasma t½, Mouse
Method: as §1

[3] = tested on: primary human immature dendritic cells; assay: Activation of primary human immature dendritic cells (CD83/CD86 flow cytometry); assay type: cell-based; settings: for Surface expression of CD86 and CD83 (in words): iDCs and, to a lesser degree, monocytes, 24 and 72 h; for EC50: iDCs, 72 h after stimulation
From the text: Frozen human PBMCs (100 × 10^6 cells) were obtained from Stem Cell Technologies (Kent, WA, USA). Monocytes were purified from PBMCs using a CD14^+ pan-monocyte-negative isolation kit and an LS column (Miltenyi Biotec, Bergisch Gladbach, Germany). Magnetically labeled non-target cells were depleted by retaining them within a MACS column in the magnetic field of a MACS Separator, while highly purified unlabeled CD1 D16^− cells were collected and used to generate dendritic cells. To obtain immature monocyte-derived dendritic cells (iMDDCs), enriched monocytes were cultured in Mo-DC differentiation medium (Miltenyi Biotec) supplemented with human IL-4 (250 IU/mL, Miltenyi Biotec) and human GM-CSF (800 IU/mL, Miltenyi Biotec) at 37 °C in a T-150 flask in a 5% CO2 humidified incubator for 5 days; fresh media was replenished every 2–3 days.
[…] An aliquot of iMDDCs was also cultured in maturation media for 24–48 h and used as a control containing RPMI 1640, 10% FBS, 2 mM L-glutamine, and human TNF-α (6000 IU/mL, Miltenyi Biotec). The supernatant from the plate was frozen to assess cytokine production, and cells were analyzed via flow cytometry.
Cells were incubated with phosphate-buffered saline (PBS) containing 2% FBS and 2 mM of EDTA (FACS buffer) supplemented with 2 mg/mL of normal human IgG on ice for 15 min to block Fc receptors. The cell suspension was then incubated with a predetermined optimal concentration of the appropriate fluorescent dye-labeled monoclonal antibodies (mAbs) against human cell surface markers on ice for 30 min. The fluorescent dye-labeled mAbs against human cell surface molecules included anti-CD209, anti-CD14, anti-CD11c, anti-CD40, anti-HLA-DR, anti-CD86, and anti-CD83 (BD Biosciences, Franklin Lakes, NJ, USA or BioLegend, San Diego, CA, USA). In addition, a fixable live/dead stain (Thermo Fisher Scientific) at a dilution of 1:1000 was added to exclude dead cells. After several washes with FACS buffer, cells were resuspended in FACS buffer and analyzed on an Attune Nxt flow cytometer (Thermo Fisher Scientific) with FlowJo v10 software (BD Biosciences). An aliquot of the cells to be analyzed served as controls by using “fluorescent minus-one” to establish gates and determine the frequency of positively stained cells. Ultra-comp beads (Thermo Fisher Scientific) were used as single-stained controls to set up compensation on the flow cytometer.

[4] = Liver microsomal stability, human; assay type: in vitro ADME; settings: pH 7.4, 0.5 mg/mL human liver microsomes, 37 °C, read-out: Liver Microsome t½, Human
Method: (§2) The liver microsomal stability assay was carried out in 96-well microtiter plates. The test compounds at 5 µM and the reference compound (verapamil) at 1 µM final concentration were incubated separately at 37 °C with 0.5 mg/mL liver microsomes, with or without 1 mM NADPH in 100 mM potassium phosphate buffer, pH 7.4 with 3.3 mM MgCl2. […] At each of the time points (0, 15, 30, and 60 min), the enzymatic reaction was terminated with the addition of 150 μL of quenching solution (100% acetonitrile, 0.1% formic acid, and the internal standard), and subsequently the mixtures were vortexed vigorously for 20 min and centrifuged at 4000 rpm at 10 °C. The supernatants (80 µL) were transferred to a clean 96-well plate and analyzed via LC/MS/MS. The peak area ratios of each test compound over the internal standard were plotted against incubation time, and the t½ was calculated from the curve assuming first-order kinetics.

[5] = Liver microsomal stability, mouse; assay type: in vitro ADME; settings: pH 7.4, 0.5 mg/mL mouse liver microsomes, 37 °C, read-out: Liver Microsome t½, Mouse
Method: as §2

[6] = early clinical trial, patients; cited from earlier work
[7] = tested on: subcutaneous CT26 tumors; assay: CT26 mouse colon carcinoma model; settings: Table 2 study, 3 × q3d; for Median Time to Endpoint: vehicle 19.0
[8] = tested on: primary human monocytes; assay: Activation of primary human monocytes (CD83/CD86 flow cytometry); assay type: cell-based; settings: Monocyte, 24 h after stimulation
From the text: Frozen human PBMCs (100 × 10^6 cells) were obtained from Stem Cell Technologies (Kent, WA, USA). Monocytes were purified from PBMCs using a CD14^+ pan-monocyte-negative isolation kit and an LS column (Miltenyi Biotec, Bergisch Gladbach, Germany). Magnetically labeled non-target cells were depleted by retaining them within a MACS column in the magnetic field of a MACS Separator, while highly purified unlabeled CD1 D16^− cells were collected and used to generate dendritic cells.
The cell suspension was then incubated with a predetermined optimal concentration of the appropriate fluorescent dye-labeled monoclonal antibodies (mAbs) against human cell surface markers on ice for 30 min. The fluorescent dye-labeled mAbs against human cell surface molecules included anti-CD209, anti-CD14, anti-CD11c, anti-CD40, anti-HLA-DR, anti-CD86, and anti-CD83 (BD Biosciences, Franklin Lakes, NJ, USA or BioLegend, San Diego, CA, USA). In addition, a fixable live/dead stain (Thermo Fisher Scientific) at a dilution of 1:1000 was added to exclude dead cells. After several washes with FACS buffer, cells were resuspended in FACS buffer and analyzed on an Attune Nxt flow cytometer (Thermo Fisher Scientific) with FlowJo v10 software (BD Biosciences). An aliquot of the cells to be analyzed served as controls by using “fluorescent minus-one” to establish gates and determine the frequency of positively stained cells. Ultra-comp beads (Thermo Fisher Scientific) were used as single-stained controls to set up compensation on the flow cytometer.

[9] = tested on: MC38-hPD-L1 tumors; assay: MC38-hPD-L1 mouse colon carcinoma model; assay type: in vivo; settings: 5 mg/kg IP, BIW (4×)
From the text: Female C57/BL6 mice (Shanghai Lingchang Biotechnology Co., Ltd., Shanghai, China) were 5 to 8 weeks old with a body weight > 16 g at the time of inoculation. Animals were housed and fed as described above.
After inoculation with tumor cells, the animals were checked daily for morbidity and mortality. During routine monitoring, the animals were checked for any effects of tumor growth or test articles on behavior such as mobility, food and water consumption, body weight gain/loss (body weights were measured twice per week after randomization), eye/hair matting, and any other abnormalities. Tumor volumes were measured and calculated as described above.
Each group consisted of 10 animals. The control group was administered 5 mg/kg isotype control antibody in a volume of 10 μL/g of IP, BIW for 2.5 weeks, 5 doses total. The atezolizumab-treated group was administered 5 mg/kg in a volume of 10 μL/g of IP, BIW for 2.5 weeks, 5 doses total. […] Dosing started when average tumor volumes were 70 mm^3.

Molecule: Nc1nc2c(ncn2[C@@H]2O[C@@H]3COP(=O)(O)O[C@H]4[C@@H](O)[C@H](n5cnc6c(N)ncnc65)O[C@@H]4COP(=O)(O)O[C@@H]2[C@@H]3O)c(=O)[nH]1 [2′3′ cGAMP, 2′3′ cyclic guanosine monophosphate–adenosine monophosphate]
- half-life at 5 µM [1]: 12.8 min
- half-life at 5 µM [2]: 7.2 min
- Surface expression of CD86 and CD83 (in words) [3]: upregulated the surface expression of CD86 and CD83
- EC50 ([3]; read-out: EC50 CD83, Immature Dendritic Cells): 3 µM
- EC50 ([3]; read-out: EC50 CD86, Immature Dendritic Cells): 7 µM

Molecule: Nc1ncnc2c1ncn2[C@@H]1O[C@@H]2CO[P@@](=O)(S)O[C@@H]3[C@H](O)[C@@H](CO[P@@](=O)(S)O[C@H]2[C@H]1O)O[C@H]3n1cnc2c(N)ncnc21 [ADU-S100]
- half-life at 5 µM [4]: > 480 min
- half-life at 5 µM [5]: > 480 min
- terminal t½ [6]: 10 to 23 min
- half-life at 5 µM [1]: > 60 min
- half-life at 5 µM [2]: > 60 min
- EC50 ([3]; Homo sapiens, Dendritic cell, read-out: EC50 CD83, Immature Dendritic Cells): 8 µM
- EC50 ([3]; Homo sapiens, Dendritic cell, read-out: EC50 CD86, Immature Dendritic Cells): 25 µM
- Surface expression of CD86 and CD83 (in words) [3]: upregulated the surface expression of CD86 and CD83
- Animals with tumor regression by end of study ([7]; 25 μg IT, Day 40): 1 of 10
- Delayed Response (TV > 10 and <2000 mm^3) ([7]; 25 μg IT, n = 10): 40% ^a
- Treatment Failure (TV > 2000 mm^3) ([7]; 25 μg IT, n = 10): 50% ^a
- Complete Response (TV < 10 mm^3) ([7]; 25 μg IT, n = 10, BALB/c, end of study Day 40): 10% ^a
- Median Time to Endpoint ([7]; 25 μg IT, n = 10): 36.5 days
- Delayed Response (TV > 10 and <2000 mm^3) ([7]; 100 μg IT, n = 10): 10% ^b
- Median Time to Endpoint ([7]; 100 μg IT, n = 10): 40.0 days
- EC50 ([8]; read-out: EC50 CD83, Monocytes): 3.9 µM
- EC50 ([8]; read-out: EC50 CD86, Monocytes): 0.49 µM

Molecule: Atezolizumab: anti-human PD-L1 antibody atezolizumab biosimilar provided by Crownbio [reference compound]
- Tumor Reduction vs. Group 1 (vehicle) ([9]; Day 11): 53.7%
- TV on Day 11 (Median) ([9]; n = 10, vehicle 2268): 1050 mm^3
